Where two headings read alike, the source gives them in different places.
How the values were obtained:
Myzus persicae = Myzus persicae test (spray treatment of infested cabbage leaves); format: in vivo, green peach aphid (Myzus persicae); conditions: for pest or weed control at 0.16 g/ha / pest or weed control at 0.8 g/ha / pest or weed control at 0.0064 g/ha / pest or weed control at 0.032 g/ha / pest or weed control at 4 g/ha: Myzus persicae
Description: (§1) If the actual kill rate exceeds the calculated value, the kill of the combination is superadditive, i.e. a synergistic effect is present. In this case, the actually observed kill rate must exceed the value calculated using the above formula for the expected kill rate (E).
(§2) solvents: 78 parts by weight of acetone • • 1.5 parts by weight of dimethylformamide emulsifier: 0.5 part by weight of alkylaryl polyglycol ether
After the desired period of time, the kill in % is determined 100% means that all aphids have been killed; 0% means that none of the aphids have been killed. The kill rates determined are entered into Colby's formula.

Phaedon cochleariae = Phaedon cochleariae larvae test (sprayed cabbage leaves); format: in vivo, mustard beetle (Phaedon cochleariae) larvae; conditions: single active compound; for pest or weed control at 20 g/ha / pest or weed control at 4 g/ha / pest or weed control at 100 g/ha / pest or weed control at 0.16 g/ha: Phaedon cochleariae
Description: as §1
Solvents: 78 parts by weight of acetone • • 1.5 parts by weight of dimethylformamide Emulsifier: 0.5 part by weight of alkylaryl polyglycol ether
After the desired period of time, the kill in % is determined 100% means that all beetle larvae have been killed; 0% means that none of the beetle larvae have been killed. The kill rates determined are entered into Colby's formula.

Spodoptera frugiperda = Spodoptera frugiperda larvae test (sprayed cabbage leaves); format: in vivo, army worm (Spodoptera frugiperda) larvae; conditions: for pest or weed control at 4 g/ha / pest or weed control at 0.8 g/ha / pest or weed control at 0.16 g/ha: 144 h, read-out: Kill in % after 6 d
Text: (§3) The expected activity of a given combination of two active compounds can be calculated as follows, according to S. R. Colby, Weeds 15 (1967), 20-22:
(§4) X is the kill rate, expressed as a percentage of the untreated control, when employing active compound A at an application rate of m g/ha or in a concentration of m ppm, Y is the kill rate, expressed as a percentage of the untreated control, when employing active compound B at an application rate of n g/ha or in a concentration of n ppm and E is the kill rate, expressed as a percentage of the untreated control, when employing active compounds A and B at application rates of m and n g/ha or in a concentration of m and n ppm, then
as §1, §2
(§5) To produce a suitable preparation of active compound, 1 part by weight of active compound is mixed with the stated amounts of solvents and emulsifier, and the concentrate is diluted with emulsifier-containing water to the desired concentration.
Cabbage leaves (Brassica oleracea) are treated by spraying with the active compound preparation of the desired concentration and are populated with larvae of the army worm (Spodoptera frugiperda) while the leaves are still moist.
After the desired period of time, the kill in % is determined 100% means that all caterpillars have been killed; 0% means that none of the caterpillars have been killed. The kill rates determined are entered into Colby's formula.

Tetranychus urticae = Tetranychus urticae test (OP-resistant/spray treatment); format: in vivo, greenhouse red spider mite (Tetranychus urticae); conditions: Tetranychus urticae, 48 h; single active compound, 4 g/ha, after 2 d; read-out: Kill in % after 2 d
Text: as §3, §4, §1, §2, §5
Discs of bean leaves (Phaseolus vulgaris) which are infested by all stages of the greenhouse red spider mite (Tetranychus urticae) are sprayed with an active compound preparation of the desired concentration.
After the desired period of time, the activity in % is determined 100% means that all spider mites have been killed; 0% means that none of the spider mites have been killed.

[1] = 144 h, read-out: Kill in % after 6 d
[2] = 144 h, 6 d, read-out: Kill in % after 6 d
[3] = 24 h, read-out: Kill in % after 1 d
[4] = 48 h, 2 d, read-out: Kill in % after 2 d
[5] = single active compound, 0.8 g/ha, 6 d

COc1cccc(C(=O)NN(C(=O)c2cc(C)cc(C)c2)C(C)(C)C)c1C [methoxyfenozide]
pest or weed control at 0.16 g/ha (Myzus persicae; [1]): 0%
pest or weed control at 0.8 g/ha (Myzus persicae; [1]): 0%
pest or weed control at 20 g/ha (Phaedon cochleariae; [2]): 0%
pest or weed control at 4 g/ha (Spodoptera frugiperda; Spodoptera frugiperda): 50%

N#Cc1ccc(CC(=NNC(=O)Nc2ccc(OC(F)(F)F)cc2)c2cccc(C(F)(F)F)c2)cc1 (mixture of isomers) [metaflumizone]
pest or weed control at 4 g/ha (Spodoptera frugiperda; Spodoptera frugiperda, single active compound, 4 g/ha, 6 d): 0%

CC(C)c1cc(Oc2ccccc2)cc(C(C)C)c1NC(=S)NC(C)(C)C [diafenthiuron]
pest or weed control at 20 g/ha (Phaedon cochleariae; [2]): 0%
pest or weed control at 4 g/ha (Tetranychus urticae): 0%

CN/C(=N\[N+](=O)[O-])NCc1cnc(Cl)s1 [clothianidin]
pest or weed control at 0.16 g/ha (Myzus persicae; [1]): 40%
pest or weed control at 4 g/ha (Phaedon cochleariae; 144 h, 4 g/ha, 6 d, read-out: Kill in % after 6 d): 50%

O=C(NC(=O)c1c(F)cccc1F)Nc1ccc(Oc2ccc(C(F)(F)F)cc2Cl)cc1F [flufenoxuron]
pest or weed control at 100 g/ha (Phaedon cochleariae; [2]): 0%
pest or weed control at 100 g/ha (Spodoptera frugiperda; Spodoptera frugiperda, 48 h, read-out: Kill in % after 2 d): 17%
pest or weed control at 0.8 g/ha (Spodoptera frugiperda; Spodoptera frugiperda): 67%

CC1(C)C(C=C(Cl)Cl)C1C(=O)OC(C#N)c1ccc(F)c(Oc2ccccc2)c1 (stereo not drawn) [β-cyfluthrin, betacyfluthrin]
pest or weed control at 0.0064 g/ha (Myzus persicae; [1]): 0%
pest or weed control at 0.032 g/ha (Myzus persicae; [1]): 0%
pest or weed control at 0.16 g/ha (Phaedon cochleariae; [2]): 0%
pest or weed control at 0.16 g/ha (Spodoptera frugiperda; Spodoptera frugiperda): 0%

CC(C)N1C(=O)N(c2ccccc2)CS/C1=N\C(C)(C)C [buprofezin]
pest or weed control at 4 g/ha (Myzus persicae; [3]): 0%
pest or weed control at 100 g/ha (Phaedon cochleariae; [2]): 0%

CN(Cc1ccc(Cl)nc1)C1=CC(=O)OC1 [compound II-29-28, 4-{[(6-chloropyrid-3-yl)methyl](methyl)amino}furan-2(5H)-one]
pest or weed control at 0.16 g/ha (Myzus persicae; 144 h, single active compound, 0.16 g/ha, 6 d, read-out: Kill in % after 6 d): 0%

COC(=O)N(C(=O)N1COC2(C(=O)OC)Cc3cc(Cl)ccc3C2=N1)c1ccc(OC(F)(F)F)cc1 (stereo not drawn) [indoxacarb]
pest or weed control at 0.8 g/ha (Myzus persicae; [1]): 0%
pest or weed control at 4 g/ha (Phaedon cochleariae; 48 h, 4 g/ha, 2 d, read-out: Kill in % after 2 d): 0%
pest or weed control at 20 g/ha (Phaedon cochleariae; [4]): 33%

CN1CN(C)/C(=N\[N+](=O)[O-])N(Cc2cnc(Cl)s2)C1 [AKD 1022]
Kill in % after 6 d (Phaedon cochleariae; 0.8 g/ha, 6 d): 0%

CC1(C)C(C=C(Cl)Cl)C1C(=O)OC(C#N)c1cccc(Oc2ccccc2)c1 (stereo not drawn) [cypermethrin]
pest or weed control at 0.032 g/ha (Myzus persicae; [1]): 0%
pest or weed control at 0.16 g/ha (Myzus persicae; [1]): 0%
Kill in % after 2 d (Phaedon cochleariae; 0.8 g/ha, 2 d): 50%
pest or weed control at 0.8 g/ha (Spodoptera frugiperda; Spodoptera frugiperda): 50%

CCOP(=S)(OCC)Oc1nc(Cl)c(Cl)cc1Cl [chlorpyrifos]
Kill in % after 6 d (Myzus persicae; single active compound, 0.16 g/ha, 6 d): 0%
Kill in % after 6 d (Myzus persicae; [5]): 0%
Kill in % after 6 d (Spodoptera frugiperda; single active compound, 4 g/ha, 6 d): 33%

Cc1cc(C(F)(C(F)(F)F)C(F)(F)F)ccc1NC(=O)c1cccc(I)c1C(=O)NC(C)(C)CS(C)(=O)=O [flubendiamid, flubendiamide]
pest or weed control at 0.8 g/ha (Myzus persicae; [3]): 0%
pest or weed control at 4 g/ha (Myzus persicae; [3]): 0%
pest or weed control at 20 g/ha (Phaedon cochleariae; [2]): 50%
pest or weed control at 0.8 g/ha (Spodoptera frugiperda; Spodoptera frugiperda): 67%

pyridaben
Kill in % after 6 d (Myzus persicae; [5]): 0%
Kill in % after 6 d (Phaedon cochleariae; 4 g/ha, 6 d): 50%

CC[S+]([O-])c1c(C#N)nn(-c2c(Cl)cc(C(F)(F)F)cc2Cl)c1N (stereo not drawn) [ethiprole]
pest or weed control at 0.8 g/ha (Myzus persicae; [1]): 0%

CC1(C)[C@H](/C=C(\Cl)C(F)(F)F)[C@@H]1C(=O)O[C@H](C#N)c1cccc(Oc2ccccc2)c1 [gamma-cyhalothrin]
pest or weed control at 0.032 g/ha (Myzus persicae; [1]): 0%
pest or weed control at 0.16 g/ha (Phaedon cochleariae; [2]): 0%
pest or weed control at 0.16 g/ha (Spodoptera frugiperda; Spodoptera frugiperda): 17%

CC1(C)C(/C=C(\Cl)C(F)(F)F)C1C(=O)OC(C#N)c1cccc(Oc2ccccc2)c1 (stereo not drawn) [lambda-cyhalothrin]
pest or weed control at 0.0064 g/ha (Myzus persicae; [1]): 0%
pest or weed control at 0.032 g/ha (Myzus persicae; [1]): 0%
pest or weed control at 0.16 g/ha (Phaedon cochleariae; [2]): 17%
pest or weed control at 0.8 g/ha (Spodoptera frugiperda; Spodoptera frugiperda): 67%

CCCSP(=O)(OCC)Oc1ccc(Br)cc1Cl (stereo not drawn) [profenofos]
pest or weed control at 20 g/ha (Phaedon cochleariae; [4]): 50%

Source: US20110124588A1, “SYNERGISTIC ACTIVE INGREDIENT COMBINATIONS” (Bayer Cropscience AG, priority 2008, published 2011)
